Test systems include EKVX; HCC 2998; HCT-116; HOP-62; HT-29; M14; NCI-H23; NCI-H460; NCI-H522; OVCAR-8; PC-3; SF-539; SN12C; TK-10; UO-31; MDA-MB-231; UACC-62; SR.
What all share (experiment): NCI-60 cell line screen, 48 h

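1) Cells in 96-well plates. 2) Compound, 48 h, 5 concentrations. 3) Linear interpolation between surrounding doses. 4) Unreached endpoint = highest concentration. Here, GI50 denotes the concentration required for 50% inhibition of growth.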 Calls of active or inactive are those of the source. Rule as the data show it: active = GI50 up to about 1.1 µM and inactive = higher.

Take `COc1cc(C2C3=C(NC(=O)C2C#N)c2ccc4ccccc4c2OCC3)cc(OC)c1OC` (configuration not stated): the GI50 was 89.7 µM (inactive) with EKVX; 25 µM (inactive) in the assay with HCC 2998; 15.7 µM (inactive) with HCT-116; 20 µM (inactive) with HOP-62; 33 µM (inactive) in the assay with HT-29; 50 µM (inactive) with M14. The GI50 was 41.3 µM (inactive) in the assay with NCI-H23; 25.9 µM (inactive) in the assay with NCI-H460; 28.9 µM (inactive) with NCI-H522; 86.7 µM (inactive) in the assay on OVCAR-8; 49.3 µM (inactive) in the assay on PC-3; 18.7 µM (inactive) in the assay on SF-539. In addition, the GI50 with SN12C is 18.1 µM (inactive); with TK-10 it was > 100 µM (inactive); in the assay on UO-31 it was 15.1 µM (inactive).
For `O=CN1CCN(C(=O)c2ccc(Cl)c(Cl)c2)C1=S`, the GI50 in the assay on EKVX is 17.5 µM (inactive); in the assay with HCC 2998, 18.5 µM (inactive); in the assay with HCT-116 it was 16.3 µM (inactive); in the assay on HOP-62 it was 16.1 µM (inactive); in the assay with HT-29, 19.4 µM (inactive); with M14, 16.8 µM (inactive). Further, the GI50 with MDA-MB-231 was 14.6 µM (inactive); with NCI-H23, 20.9 µM (inactive); in the assay with NCI-H460 it was 19.2 µM (inactive); in the assay with NCI-H522, 4.93 µM (inactive); in the assay with OVCAR-8, 15 µM (inactive); with PC-3, 14.7 µM (inactive). Moreover, the GI50 in the assay on SF-539 was 20.7 µM (inactive); with SN12C, 13.6 µM (inactive); in the assay on TK-10 it was 16.5 µM (inactive); with UACC-62, 16 µM (inactive).
`C/C(CC(=O)Nc1cc(C)ccc1C)=N\NC(=O)c1ccncc1`: the GI50 with EKVX, with HCC 2998, with HCT-116, in the assay with HOP-62, with HT-29 and in the assay on M14 was > 100 µM (inactive) each time. The GI50 was > 100 µM (inactive) with NCI-H23; > 100 µM (inactive) with NCI-H460; 78 µM (inactive) with NCI-H522; > 100 µM (inactive) with OVCAR-8; > 100 µM (inactive) in the assay on SF-539; > 100 µM (inactive) in the assay with TK-10. For the same compound, the GI50 in the assay on UACC-62 and in the assay on UO-31 was > 100 µM (inactive) in each case.
With `N#Cc1nc(-c2cccnc2)oc1N`, the GI50 in the assay with EKVX, in the assay on HCC 2998, with HCT-116, with HOP-62, with HT-29 and in the assay with MDA-MB-231 was > 100 µM (inactive) in each case. For the same compound, the GI50 in the assay on NCI-H460, in the assay on NCI-H522, in the assay with PC-3, in the assay with SN12C, in the assay with SR and with TK-10 was > 100 µM (inactive) throughout. The results for the GI50 in the assay with UACC-62 and with UO-31 were > 100 µM (inactive) and 4.83 µM (inactive), respectively.
Turning to `COc1ccc(-c2cc(O)c3ccc(F)cc3n2)cc1`, the GI50 in the assay on EKVX, in the assay on HCC 2998, with HCT-116, with HOP-62, with HT-29 and in the assay with M14 was > 100 µM (inactive) each time. Further, the GI50 in the assay on NCI-H23, with NCI-H460, in the assay on NCI-H522, in the assay with OVCAR-8, with SF-539 and with SN12C was > 100 µM (inactive) throughout. The GI50 with SR, in the assay with TK-10, in the assay on UACC-62 and in the assay on UO-31 was > 100 µM (inactive) throughout.
On to `O=C(/C=C/c1ccc(-c2ccccc2[N+](=O)[O-])o1)NCc1ccc(C(=O)NCCc2ccccc2)cc1`, for which the GI50 with EKVX, with HCC 2998, in the assay on HCT-116, in the assay on HOP-62, in the assay on HT-29 and in the assay with M14 was > 100 µM (inactive) throughout. Further, the GI50 in the assay on MDA-MB-231, in the assay on NCI-H23, in the assay with NCI-H460, with NCI-H522, in the assay on OVCAR-8 and in the assay with PC-3 was > 100 µM (inactive) in each case. In addition, the GI50 in the assay with SF-539 is > 100 µM (inactive); in the assay with SN12C, > 100 µM (inactive); in the assay on SR, 5.62 µM (inactive); with TK-10, > 100 µM (inactive); in the assay on UACC-62 it was 6.4 µM (inactive); with UO-31, > 100 µM (inactive).
For the compound `CC(SC(=S)N(C)C)C(=O)Nc1nnc(-c2ccc(Cl)cc2)o1` (configuration not stated), the GI50 was > 100 µM (inactive) in the assay with HCC 2998; 28.8 µM (inactive) in the assay with HCT-116; 51.2 µM (inactive) with HOP-62; 24 µM (inactive) in the assay on HT-29; 37.1 µM (inactive) in the assay with M14; 44.6 µM (inactive) in the assay with MDA-MB-231. Besides, the GI50 in the assay with NCI-H23 was 54.2 µM (inactive); in the assay on NCI-H460, 35.8 µM (inactive); in the assay with OVCAR-8, 49.7 µM (inactive); in the assay with PC-3 it was 35.9 µM (inactive); in the assay with SF-539, 59.7 µM (inactive); with SN12C it was 33.7 µM (inactive). Besides, the GI50 with SR was 4.33 µM (inactive); with TK-10 it was 80.2 µM (inactive); in the assay with UACC-62, 45.8 µM (inactive); with UO-31 it was 20 µM (inactive).
As for `OCSc1nn(CO)c(=S)s1`, the GI50 in the assay on EKVX was 33.7 µM (inactive); with HCC 2998 it was 22.1 µM (inactive); in the assay with HCT-116 it was 24.2 µM (inactive); in the assay with HOP-62 it was 21.8 µM (inactive); in the assay with HT-29 it was 28.1 µM (inactive); with M14, 20.1 µM (inactive). For the same compound, the GI50 was 28.1 µM (inactive) in the assay on MDA-MB-231; 20 µM (inactive) in the assay on NCI-H23; 23.8 µM (inactive) in the assay on NCI-H460; 17 µM (inactive) in the assay with NCI-H522; 10.5 µM (inactive) with OVCAR-8; 24.4 µM (inactive) in the assay on PC-3. For the same compound, the GI50 in the assay with SF-539 was 23.4 µM (inactive); in the assay with SN12C, 21.2 µM (inactive); in the assay with SR, 0.0643 µM (active); with TK-10 it was 73.5 µM (inactive); in the assay with UACC-62 it was 17.5 µM (inactive).
For the compound `O=C(Cc1nc2c3c(ccc2nc1O)C(=O)c1ccccc1C3=O)C(=O)Nc1ccccc1[N+](=O)[O-]`, the GI50 with EKVX was 17.5 µM (inactive); with HCC 2998, 19.1 µM (inactive); with HCT-116 it was 26.6 µM (inactive); in the assay with HOP-62 it was 18.3 µM (inactive); with HT-29, 19.5 µM (inactive); in the assay on M14, 16.3 µM (inactive). The GI50 is 18.5 µM (inactive) in the assay with NCI-H23; 31.9 µM (inactive) with NCI-H460; 5.27 µM (inactive) with NCI-H522; 17.1 µM (inactive) in the assay on OVCAR-8; 17.6 µM (inactive) with SF-539; > 10 µM (inactive) in the assay on SN12C. The GI50 with SR was 11.7 µM (inactive); in the assay with TK-10 it was 24.2 µM (inactive); with UACC-62, 25.6 µM (inactive); with UO-31, 27.5 µM (inactive).
